Experimental data taken from paper PMC12454603 (Archives of Toxicology, 2025).
Several values for one entry are separate records, joined by “and”; a condition that tells them apart may be missing. Identical values can stand only once.

Assays:
[1] = test system: ES-D3 cells (differentiation into contracting cardiomyocytes); test: ES-D3 cell differentiation assay of the mouse embryonic stem cell test (mEST); type: cell-based
Protocol: The developmental toxicity of the test compounds was assessed by the inhibitory effect on the differentiation of cells of the ES-D3 cell line into contracting cardiomyocytes. The assay was performed essentially as previously described (Kamelia et al. [2020]). The cells were cultured on the lid of a 96-well plate in 45 hanging drops (volume 20 µL/drop) at a concentration of 37,500 cells/ml. The 96 wells were filled with 250 µL PBS to maintain the humidity. Sterile Eppendorf lids were placed at the corners of the 96-well plate to prevent the hanging drops from contacting the 96-well plate. The plates were sealed with micropore tape and incubated at 37 °C with 5% CO2 in a humidified atmosphere for 72 h. After 72 h, 5 ml exposure medium was prepared for each concentration of each test compound with 0.25% DMSO in a 60 × 15 mm petri dish. The formed embryonic bodies (EBs) in the hanging drops on the lid of the 96-well plate were washed off with exposure medium and collected in the petri dish. The Petri dish was subsequently incubated at 37 °C with 5% CO2 in a humidified atmosphere for 48 h. After 48 h, the EBs were transferred to a 24-well plate filled with 1 ml exposure medium per well. Each well contained 1 EB. The 24-well plates were incubated at 37 °C with 5% CO2 in a humidified atmosphere for 120 h. The number of EBs with contracting cardiomyocytes and the undifferentiated EBs were counted under a microscope. In the solvent (DMSO) control, the presence of more than 21 EBs with contracting cardiomyocytes out of 24 EBs indicates a valid assay. In each experiment, 0.5 µM (0.065 µg/ml) 5-FU was used as a positive control. The result of the differentiation assay is expressed as the fraction of differentiated EBs of the total number of EBs.
The concentration–response data for the test compounds in the mEST were presented in three curves including curves for 1-day cytotoxicity, 5-day cytotoxicity, and 10-day differentiation assays. The obtained curves were fitted using the inhibition equation log (inhibitor) vs response (three parameters) option using GraphPad Prism software 5.0 (California, USA).

rat liver S9 [2] = test: Glucuronidation of 3-OH-8-MBaP in incubations with rat liver S9; type: in vitro ADME
Protocol: (§1) The conjugation of 3-OH-8-MBaP with glucuronic acid was studied in incubations with rat liver S9 in vitro. The incubation time and S9 protein concentration were optimized to ascertain linearity of glucuronidation with time and the amount of S9 protein. The incubation was performed with a 200 µL mixture in glass vials, and consisted of (final concentrations) […] Tris buffer (pH 7.4), 0.1 mg/ml pooled rat liver S9, 3 mM UDPGA, 5 mM MgCl2, 0.025 mg/ml alamethicin, and 0–100 µM 3-OH-8-MBaP. No metabolites were formed in control incubations without either rat liver S9 or co-factor UDPGA. The final concentration of substrate vehicle (DMSO) in the incubation mixture was 1% (v/v). The incubation mixtures without substrate were pre-incubated at 37 °C for 1 min. The reaction was initiated by adding substrate to the incubation mixtures that were subsequently incubated at 37 °C for 20 min, after which the reaction was terminated by adding 100 µL ice-cold acetonitrile. The incubation mixture was subsequently centrifuged at 3717g at 4 °C for 5 min. The supernatant was collected for ultra-performance liquid chromatography (UPLC) analysis.
(§2) An Acquity UPLC system with a photodiode array (PDA) detector was used to quantify the metabolites formed in the glucuronidation and sulfation incubations. The supernatants of the incubation samples were injected onto an Acquity UPLC BEH® C18 column ([…], 1.7 µm, Waters, Milford, MA). The total running time per sample was 22 min with a flow rate of 0.6 ml/min. The temperature of column and auto sampler was 40 °C and 10 °C, respectively. The injection volume was 3.5 µL and the detection wavelength ranged from 190 to 400 nm. Two eluents were used including A (nanopure with 0.1% (v/v) TFA) and B (acetonitrile with 0.1% (v/v) TFA). The gradient elution started from 90% A and 10% B applied from 0.0 min to 0.5 min, which was changed to 10% A and 90% B from 0.5 to 15.5 min and then kept at 10% A and 90% B from 15.5 min to 18.5 min, and changed back to 90% A and 10% B from 18.5 to 22.0 min. Metabolites were quantified as previously described in our study on microsomal metabolism of BaP and several of its methyl substituted analogs (Wang et al [2022]).
(§3) The concentration of the glucuronidated and sulfated metabolites was further used to calculate the velocity of the enzymatic reaction expressed in nmol/min/mg S9 protein. The curve reflecting the substrate (3-OH-8-MBaP) concentration-dependent velocity of the metabolite formation was fitted by the Michaelis–Menten equation using GraphPad Prism 5 (California, USA). The kinetic constants derived included the Km (µM) and Vmax (nmol/min/mg S9 protein).
(§4) 3-OH-8-MBaP was subsequently modeled to be conjugated by glucuronidation and sulfation in the liver. The kinetic constants for these conjugation reactions were determined in incubation experiments described in Sect. […] The scaling factors from rat liver microsomes and rat liver S9 to the whole liver were 45 mg microsomal protein/g liver and 125 mg S9 protein/g liver, respectively (Houston and Galetin [2008]).

[3] = as above; type: in vitro ADME; conditions: rat, pooled rat liver S9, pH 7.4, rat liver S9, UDPGA
Protocol: as §1, §2, §3, §4

rat liver S9 [4] = test: Sulfation of 3-OH-8-MBaP in incubations with rat liver S9; type: in vitro ADME
Protocol: (§5) The conjugation of 3-OH-8-MBaP by sulfation was studied in incubations with rat liver S9 in vitro. The incubation time and S9 protein concentration were optimized to ascertain linearity of the sulfation reaction with respect to time and amount of protein. The 200 µL incubation mixture consisted of (final concentrations) […] Tris buffer (pH 7.4), 0.1 mg/ml rat liver S9, 0.2 mM PAPS and 0–100 µM 3-OH-8-MBaP. No metabolites were detected in control incubations without either rat liver S9 or co-factor PAPS. After 1-min pre-incubation of the incubation mixture without substrate, the reaction was initiated by adding substrate from a 100 times concentrated stock solution in DMSO (final concentration 1% DMSO (v/v)). The incubation mixture was incubated at 37 °C for 70 min after which 100 µL ice-cold acetonitrile was added to the incubation mixture to terminate the reaction. The incubation mixture was subsequently centrifuged at 3717g at 4 °C for 5 min. The supernatant was collected for subsequent UPLC analysis.
as §2, §3, §4

[5] = as above; type: in vitro ADME; conditions: rat, rat liver S9, pH 7.4, rat liver S9, PAPS
Protocol: as §5, §2, §3, §4

[6] = scaled to whole liver, liver weight 9.1 g
[7] = scaled with 125 mg S9 protein/g liver

## Cc1ccc2c(c1)cc1ccc3c(O)ccc4ccc2c1c43 [3-OH-8-MBaP, 3-Hydroxy-8-methyl-benzo[a]pyrene]
[1]; Mus musculus, Cardiomyocyte, 240 h, read-out: IC50 for inhibition of differentiation of ES-D3 cells into beating cardiomyocytes
  IC50: 1400 nM
[1]; differentiation assay of the mEST
  Fold difference between IC50 of 3-OH-8-MBaP and of 3-OHBaP (3-OH-8-MBaP lower): 1.1 fold
Rat liver S9 [2]; rat liver S9, UDPGA
  Km: 15.6 µM
  Vmax, glucuronidation of 3-OH-8-MBaP: 6.92 nmol/min/mg S9 protein and 6.92^e nmol/min/mg S9 protein
Rat liver S9 [2]; [6]
  Scaled Vmax, glucuronidation of 3-OH-8-MBaP: 470 µmol/h/liver
Rat liver S9 [2]; [7]
  Scaled Vmax, glucuronidation of 3-OH-8-MBaP: 51.9 µmol/h/g liver
[3]
  Km at 20 min: 16 µM
Rat liver S9 [4]; rat liver S9, PAPS
  Km: 26.1 µM
  Vmax, sulfation of 3-OH-8-MBaP: 0.15 nmol/min/mg S9 protein and 0.15^e nmol/min/mg S9 protein
Rat liver S9 [4]; [6]
  Scaled Vmax, sulfation of 3-OH-8-MBaP: 10 µmol/h/liver
Rat liver S9 [4]; [7]
  Scaled Vmax, sulfation of 3-OH-8-MBaP: 1.16 µmol/h/g liver
[5]
  Km at 70 min: 26 µM
